This note sets out measurements from patent US12473296B2, “Perk inhibiting compounds” (HiberCell, Inc., priority 2019, dated 2025).

Bounds are passed on as bounds.

One experiment concerns the target PERK (Homo sapiens (Human), UniProt Q9NZJ5). The experiment can be described thus: PERK cellular assay (TR-FRET, HEK293-EGFP-eIF2α cells, tunicamycin-induced ER stress). It is filed as cell-based. The settings on record: tunicamycin 2 hours, read-out: Cellular IC50 (μM) (EIF2a). The gist of the method:
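After 2 h tunicamycin ([…]) stress following 30 min compound pretreatment at 37 °C, lysed HEK293-EGFP-eIF2α cells were read by TR-FRET. IC50 derived by 4-parameter logistic fitting of percent inhibition, DMSO-normalized, from 10-point 3-fold dilutions.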
A general note: In TR-FRET formats the signal depends on donor and acceptor labels being close together.

The target in experiment [1] is EIF2AK3 (PERK) catalytic domain (amino acids 536-1116) (Homo sapiens (Human), UniProt Q9NZJ5). The experiment can be described thus: PERK in vitro activity assay (isolated), TR-FRET kinase assay. The settings on record: isolated PERK enzyme, 1.5 μM ATP, GFP-eIF2a substrate; read-out: Biochemical IC50. The gist of the method: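 Human PERK catalytic domain (aa 536-1116) with 100-200 nM GFP-eIF2a in 50 mM HEPES pH 7.5, 10 mM MgCl2, 1.0 mM EGTA, 0.01% Brij-35; enzyme-started reaction run 45 min at room temperature. Stopped with 10 mM EDTA, 2 nM Tb-anti-phospho-eIF2a added for 90 min; IC50 from TR-FRET ratio by 4-parameter logistic fit.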
EIF2AK3 (PERK) catalytic domain (amino acids 536-1116), sequence (Q9NZJ5 536-1116): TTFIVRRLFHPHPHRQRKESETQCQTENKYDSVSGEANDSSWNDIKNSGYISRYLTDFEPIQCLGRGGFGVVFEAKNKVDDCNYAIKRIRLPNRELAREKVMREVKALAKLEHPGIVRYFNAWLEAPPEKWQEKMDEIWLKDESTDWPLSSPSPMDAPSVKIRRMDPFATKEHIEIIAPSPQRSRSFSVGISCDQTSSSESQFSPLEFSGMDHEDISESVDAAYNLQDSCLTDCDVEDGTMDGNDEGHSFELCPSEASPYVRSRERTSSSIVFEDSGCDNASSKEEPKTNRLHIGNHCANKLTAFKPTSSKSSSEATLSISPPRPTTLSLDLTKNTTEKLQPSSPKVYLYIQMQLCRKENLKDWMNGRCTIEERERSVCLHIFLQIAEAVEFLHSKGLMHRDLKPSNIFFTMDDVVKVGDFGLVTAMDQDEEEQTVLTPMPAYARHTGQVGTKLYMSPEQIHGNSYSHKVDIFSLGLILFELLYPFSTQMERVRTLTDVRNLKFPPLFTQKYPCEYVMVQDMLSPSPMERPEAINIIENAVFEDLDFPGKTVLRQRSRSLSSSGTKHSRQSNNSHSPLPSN

PERK, sequence (Q9NZJ5 30-1116): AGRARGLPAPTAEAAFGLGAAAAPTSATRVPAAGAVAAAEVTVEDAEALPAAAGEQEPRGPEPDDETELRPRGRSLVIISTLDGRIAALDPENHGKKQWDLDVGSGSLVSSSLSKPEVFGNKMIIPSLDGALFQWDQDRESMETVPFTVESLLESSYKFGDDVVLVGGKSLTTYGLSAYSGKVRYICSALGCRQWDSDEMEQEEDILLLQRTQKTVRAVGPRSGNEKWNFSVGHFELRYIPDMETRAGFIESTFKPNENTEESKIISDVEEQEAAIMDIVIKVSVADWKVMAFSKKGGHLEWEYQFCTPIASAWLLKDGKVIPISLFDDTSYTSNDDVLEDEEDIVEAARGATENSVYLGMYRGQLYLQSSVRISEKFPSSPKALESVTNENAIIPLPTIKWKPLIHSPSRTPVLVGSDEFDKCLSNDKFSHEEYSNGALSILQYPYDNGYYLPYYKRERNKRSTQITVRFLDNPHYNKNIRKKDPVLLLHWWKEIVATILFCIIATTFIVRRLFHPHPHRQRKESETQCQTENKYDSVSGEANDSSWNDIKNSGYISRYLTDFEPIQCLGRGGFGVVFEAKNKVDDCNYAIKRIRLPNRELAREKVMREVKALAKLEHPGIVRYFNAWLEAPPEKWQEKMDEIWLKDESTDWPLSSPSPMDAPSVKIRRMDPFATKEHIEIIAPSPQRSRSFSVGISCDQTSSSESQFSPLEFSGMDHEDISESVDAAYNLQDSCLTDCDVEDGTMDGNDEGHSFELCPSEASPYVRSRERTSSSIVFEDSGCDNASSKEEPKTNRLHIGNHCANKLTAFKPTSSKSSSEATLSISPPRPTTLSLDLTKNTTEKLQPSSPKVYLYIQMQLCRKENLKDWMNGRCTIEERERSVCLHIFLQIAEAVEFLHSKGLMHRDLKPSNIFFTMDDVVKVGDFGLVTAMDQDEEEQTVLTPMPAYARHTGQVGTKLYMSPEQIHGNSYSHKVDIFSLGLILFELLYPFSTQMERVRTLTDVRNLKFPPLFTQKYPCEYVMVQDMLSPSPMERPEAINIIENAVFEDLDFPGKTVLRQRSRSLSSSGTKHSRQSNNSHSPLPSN

For the compound `Cc1cc(NC(=O)Cc2ccccc2C(F)(F)F)ccc1-c1cnc(N)c(C(=O)NC(C)C)c1` [Example 201, 2-amino-N-isopropyl-5-(2-methyl-4-(2-(2-(trifluoromethyl)phenyl)acetamido)phenyl)nicotinamide], the 50% inhibitory concentration (IC50) at PERK lay within 0.501 to 1 µM; in experiment [1], 51 to 100 nM.

For `Cc1cc(NC(=O)Cc2cccc(C(F)(F)F)c2)ccc1-c1cnc(N)c(C(=O)NC(C)C)c1` [Example 202, 2-amino-N-isopropyl-5-(2-methyl-4-(2-(3-(trifluoromethyl)phenyl)acetamido)phenyl)nicotinamide], the IC50 at PERK was 0.101 to 0.25 µM; in experiment [1], 51 to 100 nM.

Regarding `Cc1cc(NC(=O)Cc2ccc(C(F)(F)F)cc2)ccc1-c1cnc(N)c(C(=O)NC(C)C)c1` [Example 203, 2-amino-N-isopropyl-5-(2-methyl-4-(2-(4-(trifluoromethyl)phenyl)acetamido)phenyl) nicotinamide], the IC50 on PERK lay within 1 to 2 µM; in experiment [1], 2000 to 3000 nM.

`CCc1cccc(CC(=O)Nc2ccc(-c3cnc(N)c(C(=O)NC(C)C)c3)c(C)c2)c1` [Example 205, 2-amino-5-(4-(2-(3-ethylphenyl)acetamido)-2-methylphenyl)-N-isopropylnicotinamide]: the results for the IC50 (on PERK; in experiment [1]) were 0.101 to 0.25 µM and 1 to 25 nM, respectively.

For `CCc1ccc(CC(=O)Nc2ccc(-c3cnc(N)c(C(=O)NC(C)C)c3)c(C)c2)cc1` [Example 206, 2-amino-5-(4-(2-(4-ethylphenyl)acetamido)-2-methylphenyl)-N-isopropylnicotinamide], the results for the IC50 (on PERK; in experiment [1]) were 2 to 3 µM and 251 to 500 nM, respectively.

Consider `Cc1cc(NC(=O)Cc2cccc3ccccc23)ccc1-c1cnc(N)c(C(=O)NC(C)C)c1` [Example 207, 2-amino-N-isopropyl-5-(2-methyl-4-(2-(naphthalen-1-yl)acetamido)phenyl)nicotinamide], for which the IC50 at PERK was in the range of 0.251 to 0.5 µM; in experiment [1], 1 to 25 nM.

For `Cc1cc(NC(=O)Cc2ccc3ccccc3c2)ccc1-c1cnc(N)c(C(=O)NC(C)C)c1` [Example 208, 2-amino-N-isopropyl-5-(2-methyl-4-(2-(naphthalen-2-yl)acetamido)phenyl)nicotinamide], the figures for the IC50 (at PERK; in experiment [1]) were 0.101 to 0.25 µM and 26 to 50 nM, respectively.

For the compound `Cc1cc(NC(=O)Cc2ccc3ncccc3c2)ccc1-c1cnc(N)c(C(=O)NC(C)C)c1` [Example 209, 2-amino-N-isopropyl-5-(2-methyl-4-(2-(quinolin-6-yl)acetamido)phenyl)nicotinamide], the half-inhibitory concentration (IC50) on PERK was in the range of 1 to 2 µM; in experiment [1], 101 to 250 nM.

As for `Cc1cc(NC(=O)Cc2cncc3ccccc23)ccc1-c1cnc(N)c(C(=O)NC(C)C)c1` [Example 210, 2-amino-N-isopropyl-5-(4-(2-(isoquinolin-4-yl)acetamido)-2-methylphenyl) nicotinamide], the IC50 at PERK lay within 1 to 2 µM; in experiment [1], 51 to 100 nM.

With `Cc1cc(NC(=O)Cc2cccc3cnccc23)ccc1-c1cnc(N)c(C(=O)NC(C)C)c1` [Example 211, 2-amino-N-isopropyl-5-(4-(2-(isoquinolin-5-yl)acetamido)-2-methylphenyl) nicotinamide], the values for the IC50 (on PERK; in experiment [1]) were 2 to 3 µM and 251 to 500 nM, respectively.

On to `Cc1cc(NC(=O)Cc2cccc3ncccc23)ccc1-c1cnc(N)c(C(=O)NC(C)C)c1` [Example 212, 2-amino-N-isopropyl-5-(2-methyl-4-(2-(quinolin-5-yl)acetamido)phenyl)nicotinamide], for which the concentration for half-maximal inhibition (IC50) was more than 5 µM on PERK and 1000 to 2000 nM in experiment [1].

As for `Cc1cc(NC(=O)CC2CC2)ccc1-c1cnc(N)c(C(=O)NC(C)C)c1` [Example 213, 2-amino-5-(4-(2-cyclopropyl-acetamido)-2-methylphenyl)-N-isopropylnicotinamide], the IC50 at PERK was more than 5 µM; in experiment [1], 1000 to 2000 nM.

With `Cc1cc(NC(=O)CC2CCC2)ccc1-c1cnc(N)c(C(=O)NC(C)C)c1` [Example 214, 2-amino-5-(4-(2-cyclobutylacetamido)-2-methylphenyl)-N-isopropylnicotinamide], the IC50 is more than 5 µM at PERK and 251 to 500 nM in experiment [1].

For the compound `Cc1cc(NC(=O)CC2CCCC2)ccc1-c1cnc(N)c(C(=O)NC(C)C)c1` [Example 215, 2-amino-5-(4-(2-cyclopentylacetamido)-2-methylphenyl)-N-isopropylnicotinamide], the results for the IC50 (on PERK; in experiment [1]) were more than 5 µM and more than 5000 nM, respectively.

`Cc1cc(NC(=O)CC2CCCCC2)ccc1-c1cnc(N)c(C(=O)NC(C)C)c1` [Example 216, 2-amino-5-(4-(2-cyclohexylacetamido)-2-methylphenyl)-N-isopropylnicotinamide]: the IC50 was more than 5 µM at PERK and 1000 to 2000 nM in experiment [1].

As for `Cc1cc(NC(=O)c2ccccc2)ccc1-c1cnc(N)c(C(=O)NC(C)C)c1` [Example 217, 2-amino-5-(4-benzamido-2-methylphenyl)-N-isopropylnicotinamide], the figures for the half-inhibitory concentration (IC50) (on PERK; in experiment [1]) were 0.501 to 1 µM and more than 5000 nM, respectively.

In the case of `Cc1cc(NC(=O)N(C)c2ccccc2)ccc1-c1cnc(N)c(C(=O)NC(C)C)c1` [Example 218, 2-amino-N-isopropyl-5-(2-methyl-4-(3-methyl-3-phenylureido)phenyl)nicotinamide], the results for the half-maximal inhibitory concentration (IC50) (at PERK; in experiment [1]) were more than 5 µM and 1000 to 2000 nM, respectively.

As to `Cc1cc(NC(=O)Oc2ccccc2)ccc1-c1cnc(N)c(C(=O)NC(C)C)c1` [Example 219, phenyl (4-(6-amino-5-(isopropylcarbamoyl)pyridin-3-yl)-3-methylphenyl)carbamate], the concentration for half-maximal inhibition (IC50) is 1 to 2 µM on PERK and 1000 to 2000 nM in experiment [1].

In general, IC50 refers to the concentration that inhibits the measured activity by half.
